Experimental data reported in paper PMC8792998 (Journal of medicinal chemistry, 2021).

Columns and labels:
C. parvum [1] = experiment: C. parvum-infected HCT-8 cell assay; type: cell-based, Cryptosporidium parvum; conditions: for change of potency, in words: Cp HCT-8 assay, Table 1 linker SAR; for fold loss of potency: Cp HCT-8 EC50, Table 1 linker SAR, comparator not given
C. parvum [2] = conditions: previous work, cited from earlier work
C. parvum [3] = experiment: C. parvum time-kill curve; type: cell-based, Cryptosporidium parvum; conditions: for effect on parasite numbers in time-kill assay: compound added at multiples of EC90 24 hours after infection
[4] = target: human p-glycoprotein (Pgp) multi-drug resistance (MDR) transporter (Homo sapiens, UniProt P08183); experiment: MDR1 transporter assay; type: in vitro ADME; conditions: 10 μM, 2 hours
[5] = target: human potassium channel hERG (Homo sapiens, UniProt Q12809); experiment: hERG [3H]-dofetilide competitive binding assay; conditions: 10 μM; inhibition of [3H]-dofetilide binding
hERG [6] = target: T1, hERG (Homo sapiens, UniProt Q12809); experiment: hERG-CHO automated patch clamp electrophysiology; type: cell-based
hERG [7] = target: T1, hERG; experiment: hERG [3H]-dofetilide competitive binding assay; conditions: human, probe [3H]-dofetilide
[8] = tested on: CYP1A2, CYP2B6, CYP2C8, CYP2D6, CYP3A4; experiment: CYP inhibition panel at 10 μM, remaining isoforms; type: in vitro ADME; conditions: human
[9] = Mouse PK study, plasma and jejunum; type: in vivo, CD-1 mice; conditions: male, CD-1, mouse, iv, 1 mg/kg
C. parvum [10] = experiment: NSG mouse model of C. parvum infection; conditions: 50 mg/kg twice daily by oral gavage, days 7-10; fecal qPCR; n=4
HCT-8 cells = experiment: Host cell toxicity, CellTiter AQueous colorimetric assay; type: cell-based, human
[11] = tested on: human Ether-a-go-go-Related Gene (hERG); conditions: read-out: hERG IC50; reported value; cited from earlier work

T1 sequence (Q12809 whole entry): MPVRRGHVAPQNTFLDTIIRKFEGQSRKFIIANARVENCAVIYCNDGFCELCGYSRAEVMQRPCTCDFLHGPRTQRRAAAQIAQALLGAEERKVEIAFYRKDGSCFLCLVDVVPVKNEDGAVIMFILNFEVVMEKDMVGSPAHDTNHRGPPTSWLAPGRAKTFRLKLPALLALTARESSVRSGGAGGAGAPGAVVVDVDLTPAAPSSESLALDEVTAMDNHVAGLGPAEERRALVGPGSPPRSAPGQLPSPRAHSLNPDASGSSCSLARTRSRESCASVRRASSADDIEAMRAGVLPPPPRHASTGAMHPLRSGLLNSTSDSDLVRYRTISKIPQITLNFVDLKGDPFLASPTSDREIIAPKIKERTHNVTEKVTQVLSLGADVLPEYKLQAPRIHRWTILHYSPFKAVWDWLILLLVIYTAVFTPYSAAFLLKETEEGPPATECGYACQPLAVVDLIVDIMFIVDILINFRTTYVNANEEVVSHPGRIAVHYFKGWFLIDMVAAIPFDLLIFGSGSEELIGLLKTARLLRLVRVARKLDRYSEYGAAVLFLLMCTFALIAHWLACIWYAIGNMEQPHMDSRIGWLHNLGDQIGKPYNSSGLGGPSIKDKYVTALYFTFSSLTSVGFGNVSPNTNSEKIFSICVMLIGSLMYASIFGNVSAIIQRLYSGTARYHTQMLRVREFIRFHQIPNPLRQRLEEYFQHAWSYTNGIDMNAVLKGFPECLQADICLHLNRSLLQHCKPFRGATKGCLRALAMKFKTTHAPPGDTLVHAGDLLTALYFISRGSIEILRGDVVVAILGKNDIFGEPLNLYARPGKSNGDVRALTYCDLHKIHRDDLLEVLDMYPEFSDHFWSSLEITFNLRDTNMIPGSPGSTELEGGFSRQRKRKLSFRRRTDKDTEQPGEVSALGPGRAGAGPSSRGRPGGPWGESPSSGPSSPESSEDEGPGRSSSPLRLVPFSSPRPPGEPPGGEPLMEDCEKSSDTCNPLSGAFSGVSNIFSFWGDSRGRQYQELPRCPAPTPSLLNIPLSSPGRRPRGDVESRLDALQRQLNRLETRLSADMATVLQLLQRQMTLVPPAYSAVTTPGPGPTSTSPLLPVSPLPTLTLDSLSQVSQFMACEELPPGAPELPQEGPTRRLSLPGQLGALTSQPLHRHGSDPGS
human potassium channel hERG, sequence (Q12809 whole entry): as above

## O=C(Cc1ccc(Cl)cc1)N1CCN(c2ccc3nncn3n2)CC1 [Compound 29i, 2-(4-chlorophenyl)-1-(4-{[1,2,4]triazolo[4,3-b]pyridazin-6-yl}piperazin-1-yl)ethan-1-one]
C. parvum [1]; Cp HCT-8 EC50, Table 2
  fold more potent than H (entry 1, 29a): 25 fold

## CC(=O)Oc1ccccc1C(=O)Nc1ncc([N+](=O)[O-])s1 [NTZ, nitazoxanide, reference compound]
C. parvum [2]; read-out: EC50, parasite growth in vitro
  EC50: 3.8 µM
C. parvum [3]; HCT-8 cultures
  host cell cytotoxicity in time-kill assay: cytotoxic at concentrations above the EC90
C. parvum [3]
  effect on parasite numbers in time-kill assay: blocked C. parvum growth without eliminating the parasite from HCT-8 cultures

## O=C(Cc1cccc(Cl)c1)N1CCN(c2ccc3nncn3n2)CC1 [Compound 29j, 2-(3-chlorophenyl)-1-(4-{[1,2,4]triazolo[4,3-b]pyridazin-6-yl}piperazin-1-yl)ethan-1-one]
C. parvum [1]; Cp HCT-8 EC50, Table 2
  fold less potent than chlorine in the 4-position: 4 fold

## O=C(Cc1ccc(F)cc1)N1CCN(c2ccc3nncn3n2)CC1 [Compound 29h, 2-(4-fluorophenyl)-1-(4-{[1,2,4]triazolo[4,3-b]pyridazin-6-yl}piperazin-1-yl)ethan-1-one]
C. parvum [1]; Cp HCT-8 EC50, Table 2
  fold more potent than H (entry 1, 29a): 18 fold

## N-(3,4-dichlorophenyl)-4-{[1,2,4]triazolo[4,3-b]pyridazin-6-yl}cyclohex-3-ene-1-carboxamide [Compound 18a]
[4]
  MDCK-MDR Efflux Ratio: 6.5
[5]
  hERG binding, %inh: 56%
C. parvum [1]
  change of potency, in words: equipotent to its N-linked counterpart 2

## O=C(Nc1ccc(Cl)c(Cl)c1)N1CCN(c2ccc3nncn3n2)CC1 [Compound 2, 4-([1,2,4]triazolo[4,3-b]pyridazin-6-yl)-N-(3,4-dichlorophenyl)piperazine-1-carboxamide]
C. parvum [2]
  fold more potent than MMV665917: about 4 fold
hERG [6]; human, CHO cells that express hERG
  inhibition at 1 µM: > 40%
hERG [7]
  inhibition at 10 µM: ~50%
C. parvum [3]
  effect on parasite numbers in time-kill assay: parasite numbers declined exponentially

## 2-(3,4-dichlorophenyl)-1-(2-methyl-4-{[1,2,4]triazolo[4,3-b]pyridazin-6-yl}piperazin-1-yl)ethan-1-one [Compound 10c]
C. parvum [1]
  fold loss of potency: > 50 fold

## CN(C(=O)N1CCN(c2ccc3nncn3n2)CC1)c1ccc(Cl)c(Cl)c1 [Compound 11, N-(3,4-dichlorophenyl)-N-methyl-4-{[1,2,4]triazolo[4,3-b]pyridazin-6-yl}piperazine-1-carboxamide]
C. parvum [1]
  change of potency, in words: dramatic loss of potency

## O=C(Cc1ccc(Cl)c(Cl)c1)N1CCN(c2ccc3nncn3n2)CC1 [Compound 12a, 2-(3,4-Dichlorophenyl)-1-(4-{[1,2,4]triazolo[4,3-b]pyridazin-6-yl}piperazin-1-yl)ethan-1-one]
[8]
  inhibition at 10 µM: ≤ 10%
[9]; jejunum
  clearance: 0.7 mL/min/kg
[9]; plasma
  clearance at 6 h: 0.317 mL/min/kg
C. parvum [10]
  mice with no parasites detected ten days after completing treatment: 3 of 4 and three of the four
hERG [6]
  IC50: ~8 µM
hERG [6]; safety margin
  hERG margin using EC50, not corrected for plasma protein binding: > 40 fold
C. parvum [3]; based on estimated decay rate, at six times the EC90
  time of exposure to eliminate 99.9% of parasites: ≤ 98 h
HCT-8 cells
  cytotoxicity in HCT-8 cells, in words: non-cytotoxic in HCT-8 cells

## O=C(c1ccc(Cl)c(Cl)c1)N1CCN(c2ccc3nncn3n2)CC1 [Compound 12b, 1-(3,4-dichlorobenzoyl)-4-{[1,2,4]triazolo[4,3-b]pyridazin-6-yl}piperazine]
C. parvum [1]; Cp HCT-8 EC50
  fold loss of potency relative to 12a: > 100 fold

## O=S(=O)(Cc1ccc(Cl)c(Cl)c1)N1CCN(c2ccc3nncn3n2)CC1 [Compound 13, 1-[(3,4-dichlorophenyl)methanesulfonyl]-4-{[1,2,4]triazolo[4,3-b]pyridazin-6-yl}piperazine]
C. parvum [1]
  change of potency, in words: dramatic loss of potency

## O=C(Cc1ccc(Cl)c(Cl)c1)N1CCCN(c2ccc3nncn3n2)CC1 [Compound 12c, 2-(3,4-dichlorophenyl)-1-(4-{[1,2,4]triazolo[4,3-b]pyridazin-6-yl}-1,4-diazepan-1-yl)ethan-1-one]
C. parvum [1]
  fold loss of potency: > 50 fold

## O=C(Nc1ccc(Cl)cc1)N1CCN(c2ccc3nncn3n2)CC1 [Compound 1, reference compound]
hERG [6]
  IC50: ~10 µM
hERG [6]; safety margin
  hERG IC50 versus Cp EC90(free) ratio: ~ 4 fold
[11]
  IC50: ~10 µM

## CC1CN(c2ccc3nncn3n2)CCN1C(=O)Cc1ccc(Cl)c(Cl)c1 (stereo not shown) [Compound 12d, 2-(3,4-dichlorophenyl)-1-(2-methyl-4-{[1,2,4]triazolo[4,3-b]pyridazin-6-yl}piperazin-1-yl)ethan-1-one]
C. parvum [1]
  fold loss of potency: > 50 fold

## O=C(Nc1ccc(Cl)c(Cl)c1)N1CCCN(c2ccc3nncn3n2)CC1 [Compound 10b, N-(3,4-dichlorophenyl)-4-{[1,2,4]triazolo[4,3-b]pyridazin-6-yl}-1,4-diazepane-1-carboxamide]
C. parvum [1]
  fold loss of potency: > 50 fold
